Values joined by “and” are separate entries in the source; they are usually repeats but may differ in a detail not shown here. Equal values may be shown once. Inconclusive results and toxic doses are left out. The calls were made as follows: active = survival T/C of 150% or more; inactive = T/C below 125% in these data.
System: P388 leukemia ip, CD2F1 mice, survival T/C
Test: NCI In Vivo Anticancer Drug Screen. Data for tumor model P388 Leukemia (intraperitoneal) in CD2F1 (CDF1) mice
Settings: endpoint: median survival time, higher = longer survival
How it was run: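 Mice carrying the transplanted tumor received test compound or vehicle. Survival was recorded in each group, and the value is the treated-group measurement divided by that of the vehicle-treated control group.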

[1] = dose: 25.0 mg/kg/injection, schedule: Q01DX009 (ip), vehicle: Klucel (hydroxypropylcellulose) (HPC)
[2] = dose: 50.0 mg/kg/injection, schedule: Q01DX009 (ip), vehicle: Klucel (hydroxypropylcellulose) (HPC)
[3] = dose: 100.0 mg/kg/injection, schedule: Q01DX009 (ip), vehicle: saline with Tween-80
[4] = dose: 200.0 mg/kg/injection, schedule: Q01DX009 (ip), vehicle: saline with Tween-80
[5] = dose: 100.0 mg/kg/injection, schedule: Q01DX009 (ip), vehicle: Klucel (hydroxypropylcellulose) (HPC)
[6] = dose: 60.0 mg/kg/injection, schedule: Q01DX005 (ip), vehicle: Klucel (hydroxypropylcellulose) (HPC)
[7] = dose: 120.0 mg/kg/injection, schedule: Q01DX005 (ip), vehicle: Klucel (hydroxypropylcellulose) (HPC)
[8] = dose: 240.0 mg/kg/injection, schedule: Q01DX005 (ip), vehicle: Klucel (hydroxypropylcellulose) (HPC)
[9] = dose: 100.0 mg/kg/injection, schedule: Q04DX003 (ip), vehicle: saline
[10] = dose: 200.0 mg/kg/injection, schedule: Q04DX003 (ip), vehicle: saline
[11] = dose: 400.0 mg/kg/injection, schedule: Q04DX003 (ip), vehicle: saline
[12] = dose: 50.0 mg/kg/injection, schedule: Q01DX005 (ip), vehicle: Klucel (hydroxypropylcellulose) (HPC)
[13] = dose: 100.0 mg/kg/injection, schedule: Q01DX005 (ip), vehicle: Klucel (hydroxypropylcellulose) (HPC)
[14] = dose: 200.0 mg/kg/injection, schedule: Q01DX009 (ip), vehicle: Klucel (hydroxypropylcellulose) (HPC)
[15] = dose: 200.0 mg/kg/injection, schedule: Q01DX005 (ip), vehicle: Klucel (hydroxypropylcellulose) (HPC)
[16] = dose: 100.0 mg/kg/injection, schedule: Q01DX009 (ip), vehicle: saline

Measured: T/C

CC(=O)OC1OC(CS[As](C2CCCCC2)C2CCCCC2)C(OC(C)=O)C(OC(C)=O)C1OC(C)=O (stereo unspecified)
inactive: dose: 12.5 mg/kg/injection, schedule: Q01DX009 (ip), vehicle: Klucel (hydroxypropylcellulose) (HPC) 104 % of control and 111 % of control | [1] 104 % of control and 120 % of control | [2] 98 % of control and 101 % of control

CC(C)c1nc(-c2ccccc2)c(-c2ccccc2)[nH]1
inactive: [3] 90 % of control | [4] 90 % of control | dose: 400.0 mg/kg/injection, schedule: Q01DX009 (ip), vehicle: saline with Tween-80 95 % of control

COC(=O)c1ccc(OCCC(=O)CCl)cc1
inactive: [2] 102 % of control | [5] 106 % of control

CCN(CC)C1C2=C(CCCC2)OS(=O)(=O)C1c1ccccc1 (stereo unspecified)
inactive: [6] 103 % of control | [7] 97 % of control | [8] 95 % of control

NC1[N-]C(C2CCCC[N-]2)CC2CCCCC21.NC1[N-]C(C2CCCC[N-]2)CC2CCCCC21.O=[N+]([O-])O.[Cu+2] (stereo unspecified)
inactive: dose: 6.25 mg/kg/injection, schedule: Q04DX002 (ip), vehicle: suspension in saline 108 % of control | dose: 12.5 mg/kg/injection, schedule: Q04DX002 (ip), vehicle: suspension in saline 109 % of control

CCOC(=O)NC(NC(=O)OCC)c1ccccc1
inactive: [9] 100 % of control | [10] 98 % of control | [11] 92 % of control

O=c1[nH]c2cc(Cl)ccc2nc1/C=C(\O)c1ccc([N+](=O)[O-])cc1
inactive: [6] 101 % of control | [7] 96 % of control | [8] 89 % of control

CCCCCC1=CC2(F)C(=O)NC(=O)NC12 (stereo unspecified)
inactive: dose: 12.5 mg/kg/injection, schedule: Q01DX005 (ip), vehicle: Klucel (hydroxypropylcellulose) (HPC) 97 % of control | dose: 25.0 mg/kg/injection, schedule: Q01DX005 (ip), vehicle: Klucel (hydroxypropylcellulose) (HPC) 98 % of control | [12] 108 % of control | [13] 95 % of control

N#CCN(CC#N)CC#N
inactive: dose: 1.56 mg/kg/injection, schedule: Q01DX009 (ip), vehicle: saline with Tween-80 104 % of control | dose: 1.56 mg/kg/injection, schedule: Q04DX003 (ip), vehicle: saline with Tween-80 95 % of control | dose: 3.13 mg/kg/injection, schedule: Q01DX009 (ip), vehicle: saline with Tween-80 90 % of control | dose: 3.13 mg/kg/injection, schedule: Q04DX003 (ip), vehicle: saline with Tween-80 90 % of control | dose: 6.25 mg/kg/injection, schedule: Q01DX009 (ip), vehicle: saline with Tween-80 109 % of control | dose: 6.25 mg/kg/injection, schedule: Q04DX003 (ip), vehicle: saline with Tween-80 90 % of control

O=C1CSC(c2ccc(O)cc2)N1c1nncs1 (stereo unspecified)
inactive: dose: 60.0 mg/kg/injection, schedule: Q01DX005 (ip), vehicle: saline with Tween-80 107 % of control | dose: 120.0 mg/kg/injection, schedule: Q01DX005 (ip), vehicle: saline with Tween-80 104 % of control | dose: 240.0 mg/kg/injection, schedule: Q01DX005 (ip), vehicle: saline with Tween-80 98 % of control

O=C(c1ccc(Br)cc1)c1ccc(Br)cc1
inactive: dose: 10.0 mg/kg/injection, schedule: Q01DX009 (ip), vehicle: other 100 % of control | dose: 20.0 mg/kg/injection, schedule: Q01DX009 (ip), vehicle: other 105 % of control | dose: 40.0 mg/kg/injection, schedule: Q01DX009 (ip), vehicle: other 92 % of control | dose: 50.0 mg/kg/injection, schedule: Q04DX003 (ip), vehicle: saline 99 % of control | dose: 80.0 mg/kg/injection, schedule: Q01DX009 (ip), vehicle: other 92 % of control | [9] 93 % of control | dose: 160.0 mg/kg/injection, schedule: Q01DX009 (ip), vehicle: other 105 % of control | [10] 94 % of control | dose: 320.0 mg/kg/injection, schedule: Q01DX009 (ip), vehicle: other 100 % of control | [11] 95 % of control

CCN(CC)CCSc1nnc(N)s1
inactive: dose: 50.0 mg/kg/injection, schedule: Q01DX001 (ip), vehicle: saline 103 % of control | dose: 100.0 mg/kg/injection, schedule: Q01DX001 (ip), vehicle: saline 103 % of control | dose: 200.0 mg/kg/injection, schedule: Q01DX001 (ip), vehicle: saline 99 % of control

COc1cc([N+](=O)[O-])c2nccc(C)c2c1
inactive: [1] 100 % of control | [2] 101 % of control | [5] 101 % of control | [14] 104 % of control

[CH3][Sn]([CH3])([Cl])[Cl].c1ccc(-c2nnc(-c3ccccn3)nc2-c2ccccc2)cc1
inactive: [6] 95 % of control | [7] 94 % of control | [8] 89 % of control

Cc1cccc(Nc2ncnc3nc[nH]c23)c1
inactive: [12] 100 % of control | [13] 91 % of control | [15] 94 % of control

O=C(CCS(=O)O)c1cccs1
inactive: [9] 99 % of control | [10] 96 % of control | [11] 92 % of control

CC1=CC(=O)OC12CCCC(C)(C)C2 (stereo unspecified)
inactive: dose: 50.0 mg/kg/injection, schedule: Q01DX005 (ip), vehicle: saline with Tween-80 106 % of control | dose: 100.0 mg/kg/injection, schedule: Q01DX005 (ip), vehicle: saline with Tween-80 104 % of control | dose: 200.0 mg/kg/injection, schedule: Q01DX005 (ip), vehicle: saline with Tween-80 106 % of control

CCCCOc1cc([N+](=O)[O-])ccc1CO
inactive: dose: 100.0 mg/kg/injection, schedule: Q04DX003 (ip), vehicle: saline with Tween-80 100 % of control | dose: 200.0 mg/kg/injection, schedule: Q04DX003 (ip), vehicle: saline with Tween-80 100 % of control | dose: 400.0 mg/kg/injection, schedule: Q04DX003 (ip), vehicle: saline with Tween-80 95 % of control

Cc1cc(S(=O)(=O)c2ccccc2C(=O)O)nc2c1ccc1ccccc12
inactive: [12] 105 % of control | [13] 103 % of control | [15] 103 % of control

C[N+](C)(C)CC[N+](C)(C)Cc1cccc2ccccc12
inactive: dose: 50.0 mg/kg/injection, schedule: Q01DX009 (ip), vehicle: saline 106 % of control | [16] 107 % of control

O=C(NC(CO)C(=O)O)C(Cl)Cl (stereo unspecified)
inactive: [12] 101 % of control | [13] 95 % of control | [15] 101 % of control

Cc1cc(O)ccc1O
inactive: [16] 100 % of control and 116 % of control | dose: 200.0 mg/kg/injection, schedule: Q01DX009 (ip), vehicle: saline 112 % of control and 117 % of control

Cc1ccc(S(=O)(=O)N/N=C\C(O)C(O)C(O)CO)cc1 (stereo unspecified)
inactive: [2] 114 % of control | [5] 106 % of control | [14] 107 % of control | dose: 400.0 mg/kg/injection, schedule: Q01DX009 (ip), vehicle: Klucel (hydroxypropylcellulose) (HPC) 104 % of control

O=C(/C=C/c1ccc(OCc2ccccc2)cc1)c1c(F)cccc1F
inactive: dose: 50.0 mg/kg/injection, schedule: Q01DX009 (ip), vehicle: saline with Tween-80 99 % of control | [3] 98 % of control | [4] 100 % of control
